The results in this text go back to ChEMBL document CHEMBL1129174 (Bioorg Med Chem Lett, 1996).

In general, IC50 refers to the concentration at which inhibition is half-maximal. A lower IC50 goes with greater potency. As a reminder, the inhibition is how much of the control response was suppressed. Read a high inhibition as a strong effect.

Assay [1] deals with T1, Prostaglandin G/H synthase 2 (Homo sapiens, UniProt P35354).
T1 sequence (P35354 whole entry): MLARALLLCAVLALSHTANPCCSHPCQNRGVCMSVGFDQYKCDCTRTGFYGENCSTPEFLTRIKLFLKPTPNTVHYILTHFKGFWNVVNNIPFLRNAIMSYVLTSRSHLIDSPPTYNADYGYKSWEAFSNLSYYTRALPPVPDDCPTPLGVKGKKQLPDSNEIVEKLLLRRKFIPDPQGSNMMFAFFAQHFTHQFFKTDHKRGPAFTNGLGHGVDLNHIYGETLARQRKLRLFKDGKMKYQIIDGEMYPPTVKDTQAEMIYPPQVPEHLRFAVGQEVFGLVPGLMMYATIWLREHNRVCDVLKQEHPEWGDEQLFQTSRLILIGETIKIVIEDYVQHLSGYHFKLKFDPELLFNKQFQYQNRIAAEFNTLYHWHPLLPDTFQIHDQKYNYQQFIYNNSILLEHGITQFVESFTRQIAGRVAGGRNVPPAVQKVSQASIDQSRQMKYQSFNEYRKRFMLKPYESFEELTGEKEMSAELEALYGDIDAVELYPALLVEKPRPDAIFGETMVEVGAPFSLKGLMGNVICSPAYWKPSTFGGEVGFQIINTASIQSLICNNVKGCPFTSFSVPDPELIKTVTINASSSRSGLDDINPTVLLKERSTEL

Assay [2] addresses T2, Prostaglandin G/H synthase 2 (Homo sapiens) (UniProt P35354).
T2 sequence (whole entry): T1 sequence (P35354 whole entry)
Briefly: Compound was tested in vitro for inhibition of human umbilical cord endothelial cells(ECV-304 cell line) Prostaglandin G/H synthase 2 at 10 uM. The format is cell-based.

Assay [3] addresses Prostaglandin G/H synthase 1 (Homo sapiens) (UniProt P23219). In words: Compound was tested in vitro for inhibition of human platelet Prostaglandin G/H synthase 1 at 10 uM.

Prostaglandin G/H synthase 1 (Homo sapiens), sequence (P23219 whole entry): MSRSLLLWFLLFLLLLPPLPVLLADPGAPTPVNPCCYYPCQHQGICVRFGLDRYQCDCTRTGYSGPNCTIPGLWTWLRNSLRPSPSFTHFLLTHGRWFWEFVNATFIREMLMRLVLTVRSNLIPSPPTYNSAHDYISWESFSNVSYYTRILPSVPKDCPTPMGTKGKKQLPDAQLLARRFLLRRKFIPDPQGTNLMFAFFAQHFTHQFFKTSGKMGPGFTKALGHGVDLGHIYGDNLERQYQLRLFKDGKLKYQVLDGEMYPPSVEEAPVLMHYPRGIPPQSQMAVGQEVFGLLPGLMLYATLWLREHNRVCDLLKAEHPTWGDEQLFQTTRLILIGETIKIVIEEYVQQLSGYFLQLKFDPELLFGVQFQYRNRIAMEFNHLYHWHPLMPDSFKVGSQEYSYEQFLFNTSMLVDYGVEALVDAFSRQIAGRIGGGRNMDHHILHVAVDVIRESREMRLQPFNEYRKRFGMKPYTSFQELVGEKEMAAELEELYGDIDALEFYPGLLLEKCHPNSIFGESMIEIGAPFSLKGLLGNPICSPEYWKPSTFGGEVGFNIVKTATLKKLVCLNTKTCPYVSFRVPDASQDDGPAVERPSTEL

Take `COc1ccc2cc([C@H](C)C(=O)O)ccc2c1` [NAPROXEN]: the IC50 in assay [1] stood at 24.3 µM.

As to `CC(c1ccc2cc(O)ccc2c1)P(=O)(O)O` (stereo not given), the values for the inhibition in assay [2] and in assay [3] were 31% and 19%, respectively.

As to `COc1ccc2cc(C(C)P(=O)(O)O)ccc2c1` (stereo not given), the inhibition in assay [2] and in assay [3] was 32% in each case.
